Assay results: article PMC8151276, “An Integrated Approach toward NanoBRET Tracers for Analysis of GPCR Ligand Engagement” (Molecules, 2021)

How the values were obtained:
Type in all cases: binding
CXCR4 = target: T1, CXCR4 (Homo sapiens, UniProt P61073); assay: NanoBRET screen HiBiT-CXCR4 in HEK293; settings: CXCR4
T1 construct: purchased Promega (in-house HiBiT-GPCR construct library, NanoBRET)
Protocol: (§1) Each tracer candidate was screened across the entire library of HiBiT-GPCR constructs using NanoBRET as the detection modality. As depicted in Figure 4A, the specificity of interactions was evaluated through decrease in BRET due to competitive displacement of a bound tracer by excess parental compound. Each tracer was analyzed for binding to each HiBiT-GPCR fusion in the absence and in the presence of competing parental compound. Briefly, HEK293 cells were transfected with HiBiT-GPCR constructs diluted into promoterless DNA to reduce expression and maximize translocation to the cell surface. Each tracer candidate was then screened at concentrations of 1 μM and 0.1 μM across cells expressing these fusions. Cells were treated for 1.5 h with tracer either alone or in the presence of 20 μM competing parental compound (i.e., control). BRET was measured upon addition of purified LgBiT and subsequent complementation with HiBiT genetically fused to a GPCR. The specificity of interactions was assessed through a decrease in BRET signal due to competitive displacement of the bound tracer. To further gauge the robustness of these interactions, the fold response over the control (i.e., BRETtracer/BRETcontrol) was calculated. We chose a 1.5-fold response, which translates to ≥7-fold signal over noise as the minimal threshold required to score an interaction as positive. […]. Below we highlight the screening results obtained for our exemplary fluorescent tracers based on Clozapine, Amitriptyline and AZD1283.
(§2) HiBiT-GPCR DNA constructs were diluted in 10 mM Tris pH 8 to a final concentration of 0.01 μg/μL, arrayed in 96-well plates and stored at −20 °C. For transfection, HEK293 cells were suspended in Opti-MEM (without phenol red) supplemented with 2% fetal bovine serum (Seradigm) and 100 units/mL penicillin–streptomycin (Gibco) at a final concentration of 220,000 cells/mL and dispensed into white 96-well plates at 90 μL/well. Subsequent transfections and screens were carried using an Agilent Bravo Automated Liquid Handling Platform. First, the 96-well HiBiT DNA arrays were diluted 25-fold in Opti-MEM (without serum or phenol red) to a final concentration of 0.0004 μg/μL and 20 μL of the diluted DNAs were transferred into new 96-well plates. Next, promoterless carrier DNA (1 μg/μL) was diluted 25-fold (0.04 μg/μL) and then dispensed into the diluted arrays at 20 μL/well. Following brief mixing, Viafect transfection reagent (Promega) diluted 16-fold into Opti-MEM was dispensed into the plates at 40 μL/well. After mixing by pipetting, plates were incubated for 10 min on the pipetting station deck. The DNA-transfection reagent complexes were then added to plates containing cells. To facilitate the screen, 10 μL of DNA-transfection reagent complexes were added in duplicates to the top 4 and bottom 4 rows, resulting in two identical 48-well arrays per plate. Plates with transfected cells were incubated for 18–20 h at 37 °C/5% CO2. A screen of each tracer across the entire library using two different concentrations requires duplicate plates of transfected cells. Depending on the number of tracers being screened, transfections can be scaled up using the same ratios. The next day, for each tracer, four 20× screening solutions in tracer dilution buffer (Promega) were prepared: two duplicates at final concentration of 20 μM and two duplicates at a final concentration of 2 μM. A competing unmodified compound was added to one of each duplicate at a final concentration of 400 μM. The four resulting solutions were diluted 4-fold in Opti-MEM without serum or phenol red to generate 5× solutions (5 µM and 0.5 µM tracer +/− 100 μM competing compound). To screen the library, a BioTek MultiFlo FX liquid dispenser was used to dispense 22.5 µL of tracer solution to the top 4 rows and 22.5 µL tracer + competing compound solution to the 4 bottom rows. Plates were briefly mixed on an orbital shaker and incubated for 1.5 h at room temperature. […]

AVPR1B = target: T2, AVPR1B (Homo sapiens, UniProt P47901); assay: NanoBRET screen HiBiT-AVPR1B in HEK293; settings: AVPR1B
T2 construct: purchased Promega (in-house HiBiT-GPCR construct library, NanoBRET)
T2 sequence (P47901 1-424): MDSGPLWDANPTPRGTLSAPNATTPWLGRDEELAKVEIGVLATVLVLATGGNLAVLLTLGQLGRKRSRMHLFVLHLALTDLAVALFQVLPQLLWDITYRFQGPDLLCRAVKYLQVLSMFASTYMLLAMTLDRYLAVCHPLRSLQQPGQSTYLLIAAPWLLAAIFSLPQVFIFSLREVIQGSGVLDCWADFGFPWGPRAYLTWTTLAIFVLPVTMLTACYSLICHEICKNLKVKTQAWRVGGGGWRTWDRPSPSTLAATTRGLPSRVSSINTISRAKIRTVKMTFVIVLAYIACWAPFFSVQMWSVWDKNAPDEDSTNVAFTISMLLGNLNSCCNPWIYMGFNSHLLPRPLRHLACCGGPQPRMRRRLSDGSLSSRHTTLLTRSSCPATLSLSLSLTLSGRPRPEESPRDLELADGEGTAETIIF
Protocol: as §1, §2

CCR3 = target: T3, CCR3 (Homo sapiens, UniProt P51677); assay: NanoBRET screen HiBiT-CCR3 in HEK293; settings: CCR3
T3 construct: purchased Promega (in-house HiBiT-GPCR construct library, NanoBRET)
T3 sequence (P51677 1-355): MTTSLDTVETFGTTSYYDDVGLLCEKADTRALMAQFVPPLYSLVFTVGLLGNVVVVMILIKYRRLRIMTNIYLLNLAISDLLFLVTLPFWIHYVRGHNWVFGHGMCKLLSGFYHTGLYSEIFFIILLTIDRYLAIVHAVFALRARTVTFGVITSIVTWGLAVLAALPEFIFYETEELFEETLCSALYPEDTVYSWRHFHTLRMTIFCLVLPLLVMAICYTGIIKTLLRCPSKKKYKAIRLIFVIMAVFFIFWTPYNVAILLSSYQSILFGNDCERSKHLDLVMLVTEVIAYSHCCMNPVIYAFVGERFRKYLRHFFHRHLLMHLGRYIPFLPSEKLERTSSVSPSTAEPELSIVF
Protocol: as §1, §2

C3AR1 = target: T4, C3AR1 (Homo sapiens, UniProt Q16581); assay: NanoBRET screen HiBiT-C3AR1 in HEK293; settings: C3AR1
T4 construct: purchased Promega (in-house HiBiT-GPCR construct library, NanoBRET)
T4 sequence (Q16581 1-482): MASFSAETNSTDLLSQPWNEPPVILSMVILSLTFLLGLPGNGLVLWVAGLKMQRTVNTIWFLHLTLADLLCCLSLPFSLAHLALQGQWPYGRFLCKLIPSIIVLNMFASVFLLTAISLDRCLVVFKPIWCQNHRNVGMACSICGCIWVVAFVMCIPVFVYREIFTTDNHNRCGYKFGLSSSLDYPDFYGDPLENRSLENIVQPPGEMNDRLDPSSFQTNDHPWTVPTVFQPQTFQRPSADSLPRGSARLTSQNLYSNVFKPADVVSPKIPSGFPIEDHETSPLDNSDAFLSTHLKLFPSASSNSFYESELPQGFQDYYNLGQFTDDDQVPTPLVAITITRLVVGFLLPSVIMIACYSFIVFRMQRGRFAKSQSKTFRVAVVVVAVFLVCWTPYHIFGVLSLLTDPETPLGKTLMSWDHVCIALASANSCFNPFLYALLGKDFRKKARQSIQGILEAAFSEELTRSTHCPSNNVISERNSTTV
Protocol: as §1, §2

T1 sequence (P61073 whole entry): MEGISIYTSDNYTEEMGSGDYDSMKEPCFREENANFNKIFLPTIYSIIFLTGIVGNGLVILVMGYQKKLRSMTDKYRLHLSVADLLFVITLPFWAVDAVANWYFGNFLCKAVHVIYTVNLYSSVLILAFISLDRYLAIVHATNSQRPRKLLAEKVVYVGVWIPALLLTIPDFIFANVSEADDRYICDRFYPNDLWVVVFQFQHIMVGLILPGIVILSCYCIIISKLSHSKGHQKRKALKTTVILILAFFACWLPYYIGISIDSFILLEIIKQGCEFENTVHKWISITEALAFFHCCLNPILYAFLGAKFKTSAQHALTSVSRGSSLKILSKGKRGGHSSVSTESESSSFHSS

CCCn1c(=O)c2[nH]c(-c3ccc(OCC(=O)NCCNC(=O)CCOCCNC(=O)c4ccc(CNC(=O)CCc5ccc6n5[B-](F)(F)[N+]5=C(c7ccc[nH]7)C=CC5=C6)cc4)cc3)nc2n(CCC)c1=O [XAC-3-NB590]
NanoBRET Fold Response (CXCR4; tracer 0.1μM): 0.90
NanoBRET Fold Response (CXCR4; tracer 1μM): 0.92
NanoBRET Fold Response (AVPR1B; tracer 0.1μM): 0.90
NanoBRET Fold Response (AVPR1B; tracer 1μM): 1.21
NanoBRET Fold Response (CCR3; tracer 0.1μM): 1.28
NanoBRET Fold Response (CCR3; tracer 1μM): 0.79
NanoBRET Fold Response (C3AR1; tracer 0.1μM): 1.15
NanoBRET Fold Response (C3AR1; tracer 1μM): 0.96
